Data set [1] concerns K562 CRISPRi cells. Briefly: Perturb-seq pooled growth measurement (sgRNA counts, growth phenotype γ, relative activity). Type of data set: cell-based, human. The conditions noted are these: for gamma_day5 / gamma_day10: pooled growth phenotype γ of the Perturb-seq sgRNA; for gamma_day5: day 5, K562 CRISPRi cells; for gamma_day10: day 10, K562 CRISPRi cells; for relative_activity_day5: γ relative to perfectly matched sgRNA (_00) of the same gene, day 5. In a few lines: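 CRISPRi K562 cells from the Perturb-seq transduced pool; 500,000-cell samples taken days two, seven and twelve post-transduction. sgRNA amplicons from genomic DNA sequenced; growth phenotypes from normalized sgRNA abundances at days seven and twelve versus day two. Relative activity assigned from day seven (five days' growth).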

For data set [2], the system named is K562 CRISPRi cells. The description is as above. The conditions noted are these: γ relative to perfectly matched sgRNA (_00) of the same gene, day 10. The class given is cell-based, human.

Take “CDC23_ −_137548987.23-P1P2_11 (guide GACAGCCACCGGGACCACGG; listed as DNA, chemistry not fully specified)”: in the data set with K562 CRISPRi cells [1], the gamma_day5 is on record as −0.2745, the gamma_day10 is −0.2018 and the relative_activity_day5 is given as 0.2334. This substance gave a relative_activity_day10 in the data set on K562 CRISPRi cells [2] of 0.3065.
On the same counts, the results for “COX11_ + _53045977.23-P1P2_00 (guide GGCTCTGGCGTCCTGGATGG; listed as DNA, chemistry not fully specified)” are −0.1817, −0.2988, 1 and 1.
For “COX11_ + _53045977.23-P1P2_03 (guide GGCTCTGTCGTCCTGGATGG; listed as DNA, chemistry not fully specified)”, in the data set with K562 CRISPRi cells [1], the gamma_day5 is listed as −0.1719, the gamma_day10 is recorded as −0.2875 and the relative_activity_day5 amounted to 0.9463. In the data set on K562 CRISPRi cells [2], this substance had a relative_activity_day10 of 0.9622.
In the case of “COX11_ + _53045977.23-P1P2_04 (guide GGCTCTGGCGCCCTGGATGG; listed as DNA, chemistry not fully specified)”, in the data set with K562 CRISPRi cells [1], the gamma_day5 is on record as −0.1495, the gamma_day10 is −0.2574 and the relative_activity_day5 is 0.8227. For the same substance, the relative_activity_day10 in the data set with K562 CRISPRi cells [2] is listed as 0.8616.
With “COX11_ + _53045977.23-P1P2_05 (guide GGCTCTGGCGTCTTGGATGG; listed as DNA, chemistry not fully specified)”, in the data set on K562 CRISPRi cells [1], the gamma_day5 is given as −0.0555, the gamma_day10 was −0.108 and the relative_activity_day5 came out at 0.3055. The relative_activity_day10 in the data set on K562 CRISPRi cells [2] is reported as 0.3613.
Consider “COX11_ + _53045977.23-P1P2_10 (guide GGCTCTGGCGTCCCGGATGG; listed as DNA, chemistry not fully specified)”, for which, in the data set with K562 CRISPRi cells [1], the gamma_day5 was −0.1247, the gamma_day10 was −0.1116 and the relative_activity_day5 is reported as 0.6866. Besides, the relative_activity_day10 with K562 CRISPRi cells [2] turned out to be 0.3734.
In the data set on K562 CRISPRi cells [1], “DBR1_ + _137893744.23-P1P2_00 (guide GTTTGCAGGAGTCTACACCC; listed as DNA, chemistry not fully specified)” yielded a gamma_day5 of −0.4556, a gamma_day10 of −0.4893 and a relative_activity_day5 of 1. For the same substance, the relative_activity_day10 with K562 CRISPRi cells [2] was 1.
In the data set on K562 CRISPRi cells [1], “DBR1_ + _137893744.23-P1P2_01 (guide GATTGCAGGAGTCTACACCC; listed as DNA, chemistry not fully specified)” gave a gamma_day5 of −0.5119, a gamma_day10 of −0.5474 and a relative_activity_day5 of 1.124. Further, the relative_activity_day10 in the data set with K562 CRISPRi cells [2] is recorded as 1.119.
For the substance “DBR1_ + _137893744.23-P1P2_05 (guide GTTTGCAGGAGTGTACACCC; listed as DNA, chemistry not fully specified)”, in the data set with K562 CRISPRi cells [1], the gamma_day5 was −0.3102, the gamma_day10 is listed as −0.3094 and the relative_activity_day5 is reported as 0.6809. This substance had a relative_activity_day10 in the data set with K562 CRISPRi cells [2] of 0.6323.
In the data set on K562 CRISPRi cells [1], “DBR1_ + _137893744.23-P1P2_07 (guide GTTTGCAGGGGTCTACACCC; listed as DNA, chemistry not fully specified)” displayed a gamma_day5 of −0.5167, a gamma_day10 of −0.468 and a relative_activity_day5 of 1.134. The relative_activity_day10 in the data set with K562 CRISPRi cells [2] came to 0.9563.
In the data set on K562 CRISPRi cells [1], “DBR1_ + _137893744.23-P1P2_08 (guide GTTTGCAGTAGTCTACACCC; listed as DNA, chemistry not fully specified)” came in with a gamma_day5 of −0.03529, a gamma_day10 of −0.05261 and a relative_activity_day5 of 0.07746. The substance also yielded a relative_activity_day10 in the data set on K562 CRISPRi cells [2] of 0.1075.

Values taken from US20220259593A1, “CONTROL OF MAMMALIAN GENE DOSAGE USING CRISPR” (The Regents of the University of California, priority 2019, published 2022).
